The values that follow are results of earlier work, collected in patent publication US7105698B2, “Process for the separation of R(-)-and S(+)-5-[2-[[2-(2-ethoxyphenoxy)ethyl]amino]propyl]-2- methoxybenzenesulfonamide” (Ragactives, S.L., priority 2002, dated 2006).

The conditions of the data set: ratio R(−)-I versus S(+)-I; prior studies.

With `CCOc1ccccc1OCCN[C@H](C)Cc1ccc(OC)c(S(N)(=O)=O)c1` [R(−)-I, R(−)-5-[2-[[2-(2-ethoxyphenoxy)ethyl]amino]propyl]-2-methoxybenzenesulfonamide], the “pharmacological action of R(−)-I relative to its S(+)-I enantiomer” value is on record as “up to 320 times”.
